# In patent publication US20250213546A1, “TREATING CANCER WITH SMALL MOLECULES THAT INHIBIT ACSS-2” (DREXEL UNIVERSITY, priority 2022, published 2025):
# Where two headings read alike, the source gives them in different places.
# Key:
# [1] = molecular target: hACSS-2 (Homo sapiens (Human), UniProt Q9NR19); assay: Surface plasmon resonance (SPR) binding to immobilized hACSS-2; conditions: for koff / kon: 1:1 binding model
# Procedure: SPR characterization. All binding assays were performed on a ProteOn XPR36 SPR Protein Interaction Array System (Bio-Rad Laboratories, Hercules, CA, USA). The instrument temperature was set at 25° C. for all kinetic analyses. ProteOn GLH sensor chips were preconditioned with two short pulses each (10 s) of 50 mM NaOH, 100 mM HCl, and 0.5% sodium dodecyl […]. Then the system was equilibrated with running buffer (1×PBS pH 7.4, 3% DMSO and 0.005% polysorbate 20). The surface of a GLH sensor chip was activated with a 1:100 dilution of a 1:1 mixture of 1-ethyl-3-(3-dimethylaminopropyl) carbodiimide hydrochloride (0.2 M) and sulfo-N-hydroxysuccinimide (0.05 M). […] Then, after unreacted protein had been washed out, excess active ester groups on the sensor surface were capped by a 5 min injection of 1M ethanolamine HCl (pH 8.0) at a flow rate of 5 μL/min. A reference surface was similarly created by immobilizing a nonspecific protein (IgG b12 anti-HIV-1 gp120; was obtained through the NIH AIDS Reagent Program, Division of AIDS, NIAID, NIH: Anti-HIV-1 gp120 Monoclonal (IgG1 b12) from Dr. Dennis Burton and Carlos Barbas) and was used as a background to correct nonspecific binding. Serial dilutions of hACSS-2 inhibitors were then prepared in the running buffer and injected at a flow rate of 100 μL/min, for a 50 s association phase, followed by up to a 5 min dissociation phase using the “one-shot kinetics” capability of the ProteOn instrument. Data were analyzed using the ProteOn Manager Software version 3.0 (Bio-Rad). The responses from the reference flow cell were subtracted to account for the nonspecific binding and injection artifacts. Experimental data were fitted to a simple 1:1 binding model. Experiments were performed in triplicate to detect kinetic and equilibrium dissociation constants (KD).
# Overproduction of hACSS-2 was achieved using a prokaryotic expression system. […] The bacterial expressions were then spun down, the supernatant discarded, and the pellets resuspended. After the cells were lysed via sonication, the sample was subjected to ultracentrifugation, and the clarified lysate was applied to a Talon cobalt resin affinity column (Clonetech Laboratories, Mountain View, CA). The bound protein was eluted from the column using 1×PBS pH 7.4 with 0.3 M imidazole, then dialyzed overnight into 20 mM Tris-HCl pH 8.0, concentrated to 10 mg/mL, aliquoted, and stored at −80° C.
# [2] = tested on: MDA-MB-231BR cells; assay: Clonogenicity assay; assay type: cell-based; conditions: after treatment
# Procedure: Triple-negative brain trophic cells MDA-MB-231BR (Center for Cancer Research, National Cancer Institute) were cultured with 10% fetal bovine serum (FBS), 5% 10,000 Units/mL Penicillin-10,000 μg/mL Streptomycin, and 5% 200 mM L-Glutamine. […] For crystal violet staining, 5×10^4 cells were plated in to a 6-well plate and subjected to the treatments as described in the individual figures and then stained with 0.5% crystal violet prepared in a 1:1 methanol-water solution followed by dH2O washes.
# To assess clonogenic survival, cells were cultured and detached in their respective growth media, then counted using a hemocytometer. 1,000 cells were plated in triplicate in 6-well plates in their respective growth media and allowed to form colonies. Cells were grown for 14 days. Upon conclusion of growth period, colonies were stained with crystal violet. Colony numbers were quantified based on number of colonies with >40 cells. For clonogenic survival based on drug exposure, 100,000 cells were plated in a 6-well plate, then 24 hours later treated with noted concentration of drug for 48 hours. After 48 hours, cells in each concentration condition were lifted, counted, and plated per the described clonogenic survival protocol and allowed to grow for noted length of time in noted growth media. […] Colony numbers were quantified based on number of colonies with >40 cells.
# [3] = tested on: FASN; assay: FASN expression (immunoblot); assay type: cell-based, human; conditions: BCBM cells
# Procedure: ACSS-2 provides Acetyl-CoA for numerous metabolic processes vital for cancer proliferation. The human fatty acid synthase (FASN) is essential for BCBM growth and survival (FIG. 13A), and hACSS-2 does regulate FASN protein expression levels BCBM cells (FIG. 13B).
# ACSS2 inhibitors on levels of lipid droplet storage. Briefly, cell lysates from 1-5×10^6 cells were prepared in radioimmune precipitation assay buffer (150 mM NaCl, 1% NP40, 0.5% DOC, 50 mM Tris HCL at pH 8, 0.1% SDS, 10% glycerol, 5 mM EDTA, 20 mM NaF, and 1 mM Na3 VO4) supplemented with 1 μg/ml each of pepstatin, leupeptin, aprotinin, and 200 μg/ml PMSF. Lysates were cleared by centrifugation at 16,000×g for 15 minutes at 4° C. and analyzed by SDS-PAGE and autoradiography with chemiluminescence. Proteins were analyzed by immunoblotting using primary antibodies against Fatty Acid Synthase (FASN) (Cell Signaling) and beta-Tubulin (Cell Signaling) (FIG. 16A).
# [4] = tested on: MDA-MB-231-BR; assay: Ex vivo BCBM mouse brain slice model, MDA-MB-231-BR; assay type: cell-based; conditions: bioluminescence
# Procedure: (§1) Ex vivo brain slice model. Organotypic hippocampal cultures were prepared as described previously (PMID: 34633392). Briefly, adult mice (6-8 week) or mice after 12 days following intracranial injection were decapitated and their brains rapidly removed into ice-cold (4° C.) sucrose-aCSF composed of the following (in mM): 280 sucrose, 5 KCl, 2 MgCl2, 1 CaCl2, 20 glucose, 10 HEPES, 5 Na+-ascorbate, 3 thiourea, 2 Na+-pyruvate; pH=7.3. Brains were blocked with a sharp scalpel and sliced into 250 μm sections using a McIlwain-type tissue chopper (Vibrotome inc). Four to six slices were placed onto each 0.4 μm Millicell tissue culture insert (Millipore) in six-well plates, 1 ml of medium containing the following: Neurobasal medium A (Gibco), 2% Gem21-Neuroplex supplement (Gemini), 1% N2 supplement (Gibco), 1% glutamine (Invitrogen), 0.5% glucose, 10 U/ml penicillin, and 100 μg/ml streptomycin (Invitrogen), placed underneath each insert. One-third to one half of the media was changed every 2 d. Tumor growth was monitored via bioluminescence imaging on the IVIS 200 system (Perkin Elmer) and results analyzed using Living Image software (Caliper Life Sciences, Waltham, MA, USA). […] Tissues were incubated at 37° C., 5% CO2 for 4 hours and absorbance at 490 nm was measured with Tecan Spark Microplate reader.
# [5] = tested on: 4T1-BR; assay: Ex vivo BCBM mouse brain slice model, 4T1-BR; assay type: cell-based; conditions: bioluminescence
# Procedure: as §1
# [6] = Human plasma stability; assay type: in vitro ADME; conditions: both sexes, 37° C., up to 120 min, read-out: Human Plasma Stability T1/2
# Procedure: (§2) Metabolic Stability and Plasma Stability. Test compound Working solution: 5 μL of compound stock solution (10 mM in dimethyl sulfoxide (DMSO)) were diluted with 495 μL of DMSO (Working solution concentration: 100 μM, 100% DMSO). Propantheline bromide Working solution: 5 μL of Propantheline bromide stock solution (10 mM in H2O) were diluted with 495 μL of H2O (Working solution concentration: 100 μM, 100% H2O)
# Human plasma from 3 males and 3 females was obtained. Heparin was used as the anticoagulant. The pooled frozen plasma was thawed in a water bath at 37° C. prior to experiment. Plasma was centrifuged at 4000 rpm for 5 min and the clots were removed if any. Using an Apricot automation workstation, 98 μL/well of blank plasma were added to all 96-well reaction plates. (Blank, T0, T10, T30, T60 and T120). The appointed incubation time points are T0 (0 min), Tn (n=0, 10, 30, 60, 120 min). An Apricot automation workstation was used to add 2 μL/well of working solution (100 μM) to all reaction plates except Blank. (T0, T10, T30, T60 and T120). All reaction plates containing mixtures of compound and plasma were incubated at 37° C. in water bath. The reaction plates were incubated at 37° C., and timer was started. At the end of incubation, 500 μL of stop solution was added and mixed (200 ng/mL tolbutamide and 200 ng/ml labetalol in ACN) to precipitate protein. Each plate was sealed and shaken for 20 minutes. After shaking, each plate was centrifuged at 4000 rpm and 4° C. for 20 minutes. After centrifugation, an Apricot automation workstation was used to transfer 150 μL of supernatant from each reaction plate to its corresponding bioanaylsis plate. Each bioanalysis plate was sealed and shaken for 10 minutes prior to LC-MS/MS analysis. The % remaining of test compound after incubation in plasma was calculated using following equation: Remaining=100×(PAR at appointed incubation time/PAR at T0 time) where PAR is the peak area ratio of analyte versus internal standard (IS).
# [7] = Human liver microsome stability; assay type: in vitro ADME; conditions: for Human Liver Microsome Stability Remaining(T = 60 min) / Human Liver Microsome Stability Remaining(NCF = 60 min): given as fraction
# Procedure: as §2
# [8] = tested on: MDR1; assay: in vitro; conditions: dog, MDCK-MDR1, pH 7.4, Mean % Solution Recovery A to B
# Procedure: MDCKI MDR1 cell permeability assessment was performed to mimic the blood brain barrier. MDR1-MDCK I cells were seeded onto […] (PET) in 96-well Corning insert systems at 2.5×10^5 cells/mL until to 4-7 days for confluent cell monolayer formation. The transport buffer in the study was HBSS with 10.0 mM HEPES at pH 7.40+0.05. Test compounds were tested at 2.00 μM bi-directionally in duplicate. […] Final DMSO concentration was adjusted to less than 1%. The plate was incubated for 1.5 hours in CO2 incubator at 37±1° C., with 5% CO2 at saturated humidity without shaking. All samples after mixed with acetonitrile containing internal standard were centrifuged at 3220×g for 10 min. For all samples, 150 μL supernatant solution was diluted with 150 μL ultra-pure water for LC-MS/MS analysis. In addition, the efflux ratio of each compound was also determined. Test and reference compounds were quantified by LC-MS/MS analysis based on the peak area ratio of analyte/IS. After transport assay, Lucifer yellow rejection assay are applied to determine the cell monolayer integrity. Buffers are removed from both apical and basolateral chambers, followed by the addition of 75 μL of 100 μM lucifer yellow in transport buffer and 250 μL transport buffer in apical and basolateral chambers, respectively. […] After 30 minutes incubation, 20 μL of lucifer yellow samples are taken from the apical sides, followed by the addition of 60 μL of Transport Buffer. And then 80 μL of lucifer yellow samples are taken from the basolateral sides.
# The apparent permeability coefficient Papp (cm/s) was calculated using the equation: Papp=(dCr/dt)×Vr/(A×C0) where dCr/dt is the cumulative concentration of compound in the receiver chamber as a function of time (μM/s); Vr is the solution volume in the receiver chamber (0.075 mL on the apical side, 0.25 mL on the basolateral side); A is the surface area for the transport, i.e. 0.0804 cm^2 for the area of the monolayer; CO is the initial concentration in the donor chamber (μM). […] Percent of lucifer yellow in basolateral well is calculated using the equation: Where RFUApical and RFUBasolateral are the relative fluorescence unit values of lucifer yellow in the apical and basolateral wells, respectively; VApical and VBasolateral are the volume of apical and basolateral wells (0.075 mL and 0.25 mL), respectively. The % Lucifer Yellow should be less than 1.0.
# [9] = read-out: Affinity (KD in μM) for hACSS-2 mean ± SD (n = 3), SPR, one site binding model isotherm, triplicate
# [10] = Langmuir isotherm equilibrium fit, mean, n = 3, read-out: KD [μM] equilibrium
# [11] = global fit, mean, n = 3, read-out: KD [μM] kinetic/global
# Sequence of hACSS-2 (Q9NR19 whole entry): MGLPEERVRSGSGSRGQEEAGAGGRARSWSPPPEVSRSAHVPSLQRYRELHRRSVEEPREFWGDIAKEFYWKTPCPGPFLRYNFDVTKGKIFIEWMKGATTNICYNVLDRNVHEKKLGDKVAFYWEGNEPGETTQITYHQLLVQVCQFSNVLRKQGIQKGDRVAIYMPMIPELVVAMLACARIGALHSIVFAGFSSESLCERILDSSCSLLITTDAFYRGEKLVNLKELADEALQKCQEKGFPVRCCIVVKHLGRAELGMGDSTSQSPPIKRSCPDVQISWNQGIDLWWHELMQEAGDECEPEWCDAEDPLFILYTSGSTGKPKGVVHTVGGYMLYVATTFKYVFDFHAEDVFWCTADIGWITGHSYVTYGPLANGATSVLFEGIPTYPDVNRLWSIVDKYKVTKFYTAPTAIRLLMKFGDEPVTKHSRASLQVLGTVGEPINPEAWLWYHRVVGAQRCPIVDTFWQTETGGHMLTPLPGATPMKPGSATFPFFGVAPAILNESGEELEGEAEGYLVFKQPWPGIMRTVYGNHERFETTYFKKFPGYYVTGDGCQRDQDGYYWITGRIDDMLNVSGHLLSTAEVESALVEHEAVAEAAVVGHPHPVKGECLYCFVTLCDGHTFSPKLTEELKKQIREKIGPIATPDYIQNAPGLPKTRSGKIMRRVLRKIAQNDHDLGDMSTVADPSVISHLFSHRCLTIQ
compound,measurement,setting,value
CN1CCN(CCC(=O)N2CCCC(c3ccccc3)(c3ccccc3)C2)CC1 [AD-0029],Kd,[1]; [9],356 ± 108 µM
O=C(CCN1CCCC(c2ccccc2)(c2ccccc2)C1)NC1CC1 [AD-2441],reproductive cell death (clonogenicity),[2],confirmed
same,FASN expression levels,[3],downregulates FASN expression levels
same,"BCBM growth, MDA-MB-231-BR",[4],suppress BCBM growth
same,"BCBM growth, 4T1-BR",[5],suppress BCBM growth
Cc1cccn2c(CC(=O)NCCC(c3ccccc3)c3ccco3)cnc12 (centres unmarked) [AD-3766],half-life at 2 µM,[6],> 289 min
same,Human Liver Microsome Stability Remaining(T = 60 min),[7],0.0005
same,Human Liver Microsome Stability Remaining(NCF = 60 min),[7],0.9639
same,Human Liver Microsome Stability CLint(liver),"[7]; human liver microsomes, scaled to liver",1364.4891 mL/min/kg
same,koff,"[1]; mean, n = 3",0.359 s⁻¹
same,kon,"[1]; mean, n = 3",5010 M⁻¹ s⁻¹
same,Kd,[1]; [10],70.6 µM
same,Kd,[1]; [11],77.6 µM
same,Kd,[1]; [9],67 ± 13 µM
O=S(=O)(NCCC(c1ccccc1)c1ccco1)N1CCOCC1 (centres unmarked) [AD-4859],Kd,[1]; [9],52 ± 2 µM
NC1(C(=O)N2CCCC(c3ccccc3)(c3ccccc3)C2)CC1 [AD-6772],Kd,[1]; [9],80 ± 20 µM
CN1CCC(O)(C(=O)NCCc2ccccc2Oc2ccccc2)CC1 [AD-7346],koff,"[1]; mean, n = 3",0.399 s⁻¹
same,kon,"[1]; mean, n = 3",10100 M⁻¹ s⁻¹
same,Kd,[1]; [10],39.8 µM
same,Kd,[1]; [11],49.4 µM
same,Kd,[1]; [9],53 ± 21 µM
O=C(CC1CCNC1)NCCC(c1ccccc1)c1ccccc1 (centres unmarked) [AD-8972],koff,"[1]; mean, n = 3",0.401 s⁻¹
same,kon,"[1]; mean, n = 3",2830 M⁻¹ s⁻¹
same,Kd,[1]; [10],124 µM
same,Kd,[1]; [11],149 µM
same,Kd,[1]; [9],116 ± 82 µM
"O=C(O)Cc1ccccc1Nc1c(Cl)cccc1Cl [Diclofenac, reference compound]",Human Liver Microsome Stability Remaining(T = 60 min),[7],0.00044
same,Human Liver Microsome Stability Remaining(NCF = 60 min),[7],0.8763
"COCCc1ccc(OCC(O)CNC(C)C)cc1 (centres unmarked) [Metoprolol, reference compound]","recovery at 1.5 h, 2 μM",[8],94.2%
"CC(C)[N+](C)(CCOC(=O)C1c2ccccc2Oc2ccccc21)C(C)C [Propantheline Bromide, Propantheline bromide, reference compound]",half-life at 2 µM,[6],18.6 min
"C[C@]12CC[C@H]3[C@@H](CCC4=CC(=O)CC[C@@]43C)[C@@H]1CC[C@@H]2O [Testosterone, reference compound]",Human Liver Microsome Stability Remaining(T = 60 min),[7],0.06959
same,Human Liver Microsome Stability Remaining(NCF = 60 min),[7],0.8976
